Experimental data: patent publication US20260224708A1, “CONJUGATE COMPOUNDS AND COMPOSITIONS” (REZUBIO PHARMACEUTICALS CO., LTD, priority 2023, published 2026)
pEC50: −log10 of the molar value. Where a name gives a salt, the structure may show the parent alone.

Assays:
[1] = Pharmacokinetics in mice, IV and PO; format: in vivo; conditions: mouse, plasma, male ICR (CD-1) mice
Procedure: Male ICR (CD-1) mice at around 4-6 weeks with body weight of around 25 grams (n=3) were purchased from VT-River (Zhejiang, China). After 1-week acclimation, animals were dosed with exemplary compounds intravenously at 1 mpk or orally at 10 mpk (0.5% methylcellulose in PBS as vehicle for both routes of administration). Blood samples (30 μL) were collected via saphenous vein puncture at 5 (IV only), 15, 30, 60, 120, 240, 480, and 1440 min post dose. The blood samples were saved in 0.5 M K2EDTA coated tubes and centrifuged at 4,600 rpm at 4° C. for 5 min. Plasma samples were collected and stored in −80° C. till PK analysis.
Take 10 μL of K2EDTA-treated plasma samples of CD-1 mice, add 200 μL of precipitation solution with internal standard (5 ng/mL Terfenadine in MeOH/ACN), mix well by vortexing for 1 min at room temperature followed by centrifuge at 4° C. and 4000 rpm for 15 min. Save the supernatant as injection for LC-MS/MS quantification of exemplary compounds in plasma samples of mice.
Establish a standard curve before and after each analytical batch, accompanied by quality controls of low, medium, and high concentrations. The number of quality control samples is not less than 6 and should be equal to or more than the number of samples of each batch, and interspersed in sample measurement. Standard curve and quality control samples of each batch must meet the acceptance criteria.

GPR40 = target: T1, GPR40 (Homo sapiens, UniProt O14842); experiment: IP1 accumulation assay in HEK293 cells stably expressing GPR40; format: cell-based
T1 construct: expressed in transfected cells
Procedure: IP1 accumulation assay was used to evaluate the potency of compounds. HEK293 cells stably expressing GPR40 were cultured in 5% CO2 incubator (ThermoFisher) in maintenance media (Dulbecco's modified Eagle's medium with 4.5 g/L of glucose, 10% fetal bovine serum, 100 μg/mL Hygromycin, and Penicillin (100 U/mL)/Streptomycin (100 μg/mL)) till 100% confluency. Cells were harvested freshly, spun down at 300×g for 5 min, and resuspended in pre-warmed 1×stimulant buffer from Cisbio IP-One HTRF Detection kit (Cisbio). Cell density was adjusted to 2.0×10^6 cells/mL. DMSO was used as blank control and AMG-1638 (CAS #: 1142214-62-7) as positive control. Compounds were prepared at 10 mM in DMSO and 5 nL of 3×serially diluted compounds (10 concentrations) were added to each well of the 384-LDV assay plate (Corning) by using ECHO 550 (Labcyte). Five μL of cells in suspension were transferred into each well by using Multidrop Combi Reagent Dispenser (ThermoFisher). Assay plate was then sealed and incubated at 37° C. for 2 hours. IP-d2 reagent and anti-IP1 reagent were prepared following the manual (Cisbio). Five μL of IP1-d2 and then 5 μL of anti-IP1 antibody was added to each well sequentially. Assay plate was incubated at room temperature for 60 min and then read at 665 nm/615 nm on an Envision plate reader (PerkinElmer). […] Dose curve was fitted and EC50 of each compound was calculated by using XLFit.

T1 sequence (O14842 whole entry): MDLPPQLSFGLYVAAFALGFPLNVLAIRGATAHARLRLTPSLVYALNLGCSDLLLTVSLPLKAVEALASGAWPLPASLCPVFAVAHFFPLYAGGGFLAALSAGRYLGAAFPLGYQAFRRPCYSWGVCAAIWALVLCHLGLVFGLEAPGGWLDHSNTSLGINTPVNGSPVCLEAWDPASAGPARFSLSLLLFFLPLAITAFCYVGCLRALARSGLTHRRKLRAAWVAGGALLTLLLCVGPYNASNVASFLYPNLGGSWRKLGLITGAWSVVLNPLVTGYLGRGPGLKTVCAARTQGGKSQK

SMILES | clearance ([1]; 1 mg/kg, IV 1 mpk) | further results
COc1ccc(C(=O)N(CC(C)(C)CCCCCCCCCCCCCCCCCCCC(=O)NCC[N+](C)(CC(=O)NCCN)CC(=O)NCCN)c2cccc(C)n2)c(N2CCC(COc3cc([C@@H](CC(=O)O)C4CC4)ccn3)CC2)c1 [Example 4] | 0.22 mL/min/kg | 
COc1ccc(C(=O)N(CC(C)(C)CCCCCCCCCCCCCCCCCC(=O)NCCC[N+](C)(CC(=O)NCCN)CC(=O)NCCN)c2cccc(C)n2)c(N2CCC(COc3cc([C@@H](CC(=O)O)C4CC4)ccn3)CC2)c1 [Example 12] | 0.15 mL/min/kg | 
COc1ccc(C(=O)N(CC(C)(C)CCCCCCCCCCCCCCCCCCCC(=O)NCCCN(CC(=O)O)CC(=O)O)c2cccc(C)n2)c(N2CCC(COc3cc([C@@H](CC(=O)O)C4CC4)ccn3)CC2)c1 [Example 13] | 0.14 mL/min/kg | 
COc1ccc(C(=O)N(CC(C)(C)CCCCCCCCCCCCCCCCCCCC(=O)NCCC[N+](C)(CC(=O)[O-])CC(=O)O)c2cccc(C)n2)c(N2CCC(COc3cc([C@@H](CC(=O)O)C4CC4)ccn3)CC2)c1 (stereo partly drawn) [Example 14] | 0.2 mL/min/kg | 
COc1ccc(C(=O)N(CC(C)(C)CCCCCCCCCCCCCCCCCC(=O)NCC[N+](C)(CCCC(=O)NCCN)CCCC(=O)NCCN)c2cccc(C)n2)c(N2CCC(COc3cc([C@@H](CC(=O)O)C4CC4)ccn3)CC2)c1 [Example 17] | 0.1 mL/min/kg | pEC50 (GPR40): 9.96; AUC ([1]; 1 mg/kg, IV 1 mpk): 104 µM·h; half-life ([1]; 1 mg/kg, IV 1 mpk): 10.5 h; Cmax ([1]; 10 mg/kg, PO 10 mpk): 238 nM; Tmax ([1]; 10 mg/kg, PO 10 mpk): 6.7 h; bioavailability ([1]; 10 mg/kg, PO 10 mpk, oral bioavailability): 0.41%
COc1ccc(C(=O)N(CC(C)(C)CCCCCCCCCCCCCCCCCC(=O)NCCC[N+]23CCN(CC2)CC3)c2cccc(C)n2)c(N2CCC(COc3cc([C@@H](CC(=O)O)C4CC4)ccn3)CC2)c1 [Example 18, (S)-1-(3-(20-(2-(4-(((4-(2-carboxy-1-cyclopropylethyl)pyridin-2-yl)oxy)methyl)piperidin-1-yl)-4-methoxy-N-(6-methylpyridin-2-yl)benzamido)-19,19-dimethylicosanamido)propyl)-1,4-diazabicyclo[2.2.2]octan-1-ium TFA salt] | 0.32 mL/min/kg | 
COc1ccc(C(=O)N(CC(C)(C)CCCCCCCCCCCCCCCCCC(=O)NCCC[N+]23CC[N+](C)(CC2)CC3)c2cccc(C)n2)c(N2CCC(COc3cc([C@@H](CC(=O)O)C4CC4)ccn3)CC2)c1 [Example 19] | 0.43 mL/min/kg | 
COc1ccc(C(=O)N(CC(C)(C)CCCCCCCCCCCCCCCCCCCCCC[N+]23CCN(CC2)CC3)c2cccc(C)n2)c(N2CCC(COc3cc([C@@H](CC(=O)O)C4CC4)ccn3)CC2)c1 [Example 21, (S)-1-(24-(2-(4-(((4-(2-carboxy-1-cyclopropylethyl)pyridin-2-yl)oxy)methyl)piperidin-1-yl)-4-methoxy-N-(6-methylpyridin-2-yl)benzamido)-23,23-dimethyltetracosyl)-1,4-diazabicyclo[2.2.2]octan-1-ium] | 0.67 mL/min/kg | 
COc1ccc(C(=O)N(CC(C)(C)CCn2cc(CCCCCCCCCCCCCCCCCC(=O)NCCC[N+]34CCN(CC3)CC4)nn2)c2cccc(C)n2)c(N2CCC(COc3cc([C@@H](CC(=O)O)C4CC4)ccn3)CC2)c1 [Example 34] |  | pEC50 (GPR40): 9.49
